From article PMC9743095 (Journal of Medicinal Chemistry, 2022)
Where two headings read alike, the source gives them in different places.

Tests used:
Plasma stability = assay type: in vitro ADME; conditions: for half-life at 24 h, 20 µM: human, plasma
Method: […] After incubation, 100 μL of each sample was taken and 300 μL of 100% methanol was added and left on ice for 30 min. After 30 min, the mixture was centrifuged (14 000 rpm, 4 °C, 10 min), and the supernatant was transferred to new tubes and evaporated under SpeedVac. Then, the dried extract was reconstituted in 100 μL of 10% acetonitrile, then transferred to LC-MS vials, and 10 μL was injected into the UPLC-MS/MS system.

[1] = Metabolic stability in cryopreserved human hepatocytes; assay type: in vitro ADME; conditions: for hepatocyte CLint at 1 μM: pH 7.3, read-out: Clint (intrinsic clearance)
Method: The assay was contracted and performed by Cerep (Seattle, WA Laboratories, 15318 N. E. 95th Street Redmond, WA, 98052) according to the published procedure (Cerep ref 1432). Pooled cryopreserved hepatocytes were thawed, washed, and resuspended in Krebs–Heinslet buffer (pH 7.3). The reaction was initiated by adding the test compound (1 μM final concentration) into cell suspension and incubated in a final volume of 100 μL on a flat-bottom 96-well plate for 0 and 60 min, respectively, at 37 °C/5% CO2. The reaction was stopped by adding 100 μL of acetonitrile into the incubation mixture. Samples were then mixed gently and briefly on a plate shaker, transferred completely to a 0.8 mL V-bottom 96-well plate, and centrifuged at 2550g for 15 min at room temperature. Each supernatant (150 μL) was transferred to a clean cluster tube, followed by high-performance liquid chromatography–tandem mass spectrometry (HPLC-MS/MS) analysis on a Thermo Electron triple quadrupole system.

carboxypeptidase Y = molecular target: T1, carboxypeptidase Y (Saccharomyces cerevisiae, UniProt P00729); assay: Carboxypeptidase Y assay (31P NMR); assay type: in vitro ADME; conditions: acetone-d6/Trizma buffer pH 7.6, 31P NMR
T1 construct: purchased Sigma-Aldrich
Method: ProTides 7a (5 mg, ±0.008 mmol) was dissolved in 150 μL of acetone-d6, and 300 μL of trizma buffer (pH 7.6) was added. A ^31P NMR (202 MHz, 64–128 scans) was conducted at this stage as a reference (blank, t = 0). To this mixture, 130 μL of a stock solution of carboxypeptidase enzyme (purchased from Sigma-Aldrich, >50 unit/mg, dissolved in trizma buffer 7.6 pH to a concentration of 50 units/mL, EC 3.4.16.1) was added. ^31P NMR (128 scans) were carried out with 1 min of delay between experiments for 14 h at 25 °C.

[2] = test system: CEM, K562, HL-60, and CRL cell lines; assay: Intracellular 3′-dATP quantification, cell lines together; assay type: cell-based, human
Method: HL-60 (ATCC CCL-240), K562 (ATCC CCL-243), CCRF-CEM (ATCC CRM-CCL-119), and RL (ATCC CRL-2261) leukemia cell lines were obtained from the American Type Culture Collection (ATCC), Middlesex. HL-60 and K562 cell lines are deoxynucleotidyl transferase-negative (TdT^–ve), whereas CCRF-CEM cell line is TdT^+ve. They were cultured in RPMI-1640 medium (Sigma-Aldrich, U.K.), which were supplemented with 10% fetal bovine serum (FBS) (PAA Laboratories), 1% amphotericin B (5.5 mL), and 1% penicillin/streptomycin (5.5 mL) (PAA Laboratories) and grown in flasks at 37 °C in an incubator with 5% CO2. […]
The analytes were resolved using an ultraperformance liquid chromatography system (Accela UPLC, Thermo Scientific, U.K.) equipped with a Biobasic A × 5 μm, 50 × 2.1 mm column (Thermo Electron Corporation, Murrieta, CA) and mobile phase consisting of a mixture of 10 mM NH4Ac in ACN/H2O (30:70 v/v), pH 6.0 (A), and 1 mM NH4Ac in ACN/H2O (30:70 v/v), pH 10.5 (B). […] Eluting compounds of interest were detected using a triple-stage quadrupole Vantage mass spectrometry system (Thermo Scientific, U.K.) equipped with an electrospray ion source. Samples were analyzed in the Multiple Reaction Monitoring, negative-ion modes at a spray voltage of 3000 V. Nitrogen was used as sheath and auxiliary gas at flow rates of 50 and 20 arbitrary units, respectively. […]

[3] = test system: advanced solid tumors or lymphoma; set-up: method as in PMID 34497073; conditions: preliminary findings, phase I/II trial; cited from earlier work
[4] = pH 7.3, read-out: t1/2 (half-life)

T1 sequence (P00729 112-532, species assumed): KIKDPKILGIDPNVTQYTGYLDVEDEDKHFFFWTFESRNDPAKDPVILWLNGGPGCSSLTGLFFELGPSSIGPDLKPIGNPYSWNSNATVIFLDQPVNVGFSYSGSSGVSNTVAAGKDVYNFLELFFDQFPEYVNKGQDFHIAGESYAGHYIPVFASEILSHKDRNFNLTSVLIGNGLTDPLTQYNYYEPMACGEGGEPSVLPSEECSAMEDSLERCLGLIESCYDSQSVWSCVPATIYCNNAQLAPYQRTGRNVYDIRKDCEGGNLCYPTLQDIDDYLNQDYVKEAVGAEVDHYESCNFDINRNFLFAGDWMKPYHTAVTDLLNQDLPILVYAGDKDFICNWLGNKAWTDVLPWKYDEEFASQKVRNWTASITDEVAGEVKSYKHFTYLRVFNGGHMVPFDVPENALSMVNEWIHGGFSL

Q: For `Nc1ncnc2c1ncn2[C@@H]1O[C@H](CO)C[C@H]1O` [3′-dA, 3′-Deoxyadenosine, reference compound], which “remaining after 24 h” value (Plasma stability; human plasma, with EHNA) is on record?
A: 42.1%

Q: And the “time until completely metabolized” value (Plasma stability; human plasma, without EHNA)?
A: 4 h

Q: And the half-life at 24 h, 20 µM (Plasma stability; with EHNA)?
A: 252 min

Q: What about the half-life at 24 h, 20 µM (Plasma stability; without EHNA) of the same molecule?
A: 62 min

Q: What does the source list for `C[C@H](NP(=O)(OC[C@@H]1C[C@@H](O)[C@H](n2cnc3c(N)ncnc32)O1)Oc1ccccc1)C(=O)OCc1ccccc1` (stereo partly drawn) [Compound 7a, (Rp)- and (Sp)-3′-Deoxyadenosine 5′-O-phenyl-(benzoxy-L-alaninyl)-phosphate]?
A: hepatocyte CLint at 1 μM ([1]; pooled cryopreserved hepatocytes): 22.6 µL/min/1e6 cells; half-life at 1 h, 1 µM ([1]; pooled cryopreserved hepatocytes, pH 7.3, read-out: t1/2 (half-life)): 48.1 min; concentration detected after 30 s of incubation (Plasma stability; human plasma): 10000 ng/mL; change in plasma concentration (Plasma stability; human plasma, up to 4 h): no change in plasma concentration; time to complete conversion into aminoacyl phosphoramidate ester II (carboxypeptidase Y): 1 h; effect of hENT1, AK, and ADA inhibitors on intracellular 3′-dATP levels [2]: did not affect; anticancer activity [3]: encouraging signals of anticancer activity; tolerability [3]: well tolerated

Q: What does the source list for `CCOC(=O)CCc1ccccc1OP(=O)(N[C@@H](C)C(=O)OCc1ccccc1)OC[C@@H]1C[C@@H](O)[C@H](n2cnc3c(N)ncnc32)O1` (stereo partly drawn) [Compound 7e]?
A: hepatocyte CLint at 1 μM [1]: 41.1 µL/min/1e6 cells; half-life at 1 μM [1, 4]: 26 min; half-life at 1 h, 1 µM [1, 4]: 25.6 min
